One assay has as its target T1, IRAK3-ePL (Homo sapiens, UniProt Q9Y616).
T1 construct: expressed in transfected cells; host or cells: 293T CRBN OE/GSPT1 G575N KI cells, lentiviral transduction, puromycin selected
The experiment in a line: IRAK3-ePL overexpressing degradation assay (InCELL Hunter luminescence, dose response). Particulars: for IRAK3 ePL degradation Ymin: lowest percentage of target protein remaining following compound treatment; for DC50: read-out: IRAK3 ePL degradation EC50. The class given is cell-based. The procedure:
Example B1. IRAK3-ePL Overexpressing Degradation Assay
Stable cell lines were generated by the following protocol. 3×10^5 Lenti-X 293T cells (Clonetech) were plated in 0.8 mL of media in a 12-well plate and incubated overnight at 37° C./5% CO2. Packaging plasmid (0.4 μg, pMD), envelope plasmid (0.4 μg, pSP), and lentiviral transfer IRAK3-ePL plasmid (0.8 μg, TRAK3 sequence NM_007199.3) were mixed in 0.1 mL of Opti-MEM and incubated for 5 min. Simultaneously, 2.4 μL of Lipofectamine 2000 (Invitrogen) was added to 0.1 mL of Opti-MEM (Gibco) and incubated for 5 min. The plasmid DNA and lipofectamine were combined and the mixture was allowed to incubate for 20 min.DNA:Lipofectamine Opti-MEM mixtures were then added to previously plated cells dropwise and the cells were incubated for ~16 h at 37° C./5% CO2. Following incubation, the media was removed and 1.2 mL of fresh media was added per well. Lenti-X 293T cells were incubated for ~30 h at 37° C./5% CO2. […] Following incubation, media was removed from the Lenti-X 293T wells and passed through a […] filter. Part of the viral supernatant was used to transduce cells and the rest was stored at −80° C. Viruses were then added individually (0.5 mL virus) to each well of the 293T^CRBN OE/GSPT1 G575N KI cells, followed by addition of polybrene (10 mg/mL Millipore) to each well at a final concentration of 5.0 μg/mL. Cells were incubated for ~24 h at 37° C./5% CO2. After aspirating media off plates, cells were washed with DPBS, trypsinized and plated in a 10 cm dish in 15 mL of media and […] puromycin. Following incubation of cells for ~72 h at 37° C./5% CO2, media was aspirated off plates, and cells were washed with DPBS and trypsinized. The cells were plated in a 15 cm dish in 40 mL of media with 1.0 μg/mL Puromycin (Gibco) and incubated for ~72 h at 37° C./5% CO2. Following incubation, media was removed and cells were washed with DPBS and trypsinized. The majority of cells were resuspended in Invitrogen freezing media and stored away (~6-8×10^6 cells/vial).
IRAK3-ePL cellular dose response curve degradation assays were performed by the following protocol. Compounds to be tested were dispensed into a white 384-well tissue-culture treated plate using an acoustic liquid handler. Dilutions were prepared based on a 25 μL assay volume in duplicate 10 point 3-fold serial dilutions starting with a 10 μM dose. Negative control wells were included, which only contain 0.2% DMSO to calculate 100% signal. Positive control wells containing 30 μM Ataluren (luciferase inhibitor) were included to calculate the background signal level. All wells were backfilled to a final DMSO concentration of 0.2% to ensure DMSO uniformity across wells. IRAK3-ePL expressing cells (IRAK3-ePL Lenti-X 293T^CRBN/GSPT1 G575N) were washed, trypsinized, counted, and resuspended in fresh DMEM (Gibco) to give a cell concentration of 200,000 cells/mL. 25 μL of cells (5,000 cells/well) were dispensed into the wells of the 384-well plate prespotted with compounds in the previous step and incubated overnight at 37° C./5% CO2. Following incubation, the 384-well plate was taken out of the incubator and left at room temperature for 30 min. InCELL hunter reagent was prepared according to manufacturer's instructions (EA reagent, lysis buffer, and substrate reagent in a 1:1:4 ratio, Cat #96-0002, DiscoverX), which was added to the 384-well plate 25 μL per well. Following the incubation of the plate for 1 h at room temperature, the luminescence signal was read using a ViewLux plate reader. Data was processed and analyzed in ActivityBase software. In short, the average luminescence values of the positive control wells were subtracted from the rest of the wells for background correction, and all luminescence values were normalized to the DMSO control wells. The average value of the DMSO control wells was set to equal 100% of the relative IRAK3-ePL protein levels. […]

Assay [1] addresses T2, IRAK3 (Homo sapiens, UniProt Q9Y616).
T2 construct: IRAK Endogenous HTRF Degradation Assay; endogenous in cells
T2 sequence (Q9Y616 1-596): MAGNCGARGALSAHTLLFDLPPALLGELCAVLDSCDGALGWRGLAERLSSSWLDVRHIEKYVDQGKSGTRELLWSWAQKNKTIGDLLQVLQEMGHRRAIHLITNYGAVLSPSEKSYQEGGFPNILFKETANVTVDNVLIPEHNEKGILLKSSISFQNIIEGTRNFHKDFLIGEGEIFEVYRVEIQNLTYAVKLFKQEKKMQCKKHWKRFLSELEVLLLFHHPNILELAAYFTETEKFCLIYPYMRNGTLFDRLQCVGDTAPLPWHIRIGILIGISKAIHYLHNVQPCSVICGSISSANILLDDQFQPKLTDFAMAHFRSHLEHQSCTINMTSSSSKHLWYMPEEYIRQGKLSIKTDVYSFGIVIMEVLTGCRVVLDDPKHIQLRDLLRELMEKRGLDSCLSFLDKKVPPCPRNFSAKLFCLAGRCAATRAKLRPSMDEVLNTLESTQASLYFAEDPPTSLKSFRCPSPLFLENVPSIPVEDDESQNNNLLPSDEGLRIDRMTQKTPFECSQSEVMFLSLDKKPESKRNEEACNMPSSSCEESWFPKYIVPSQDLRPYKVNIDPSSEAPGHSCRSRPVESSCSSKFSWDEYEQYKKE
The experiment in a line: IRAK endogenous HTRF degradation assay (Total-IRAK3 HTRF kit). The assay is classed as cell-based. Particulars: overnight incubation, lowest percentage of protein remaining. The procedure:
Example B2. IRAK Endogenous HTRF Degradation Assay
Cells (~50 k) were plated in Cisbio 96-well low volume white plates (Cisbio: cat #66PL96005). Compounds were dissolved in DMSO and a 3-fold serial dilution was performed using a TECAN D300E. Cells were incubated with the compound overnight. Total-IRAK3 HTRF kit from Cisbio was used for degradation analysis (Cisbio: 63ADK101PEH). Cryptate and D2 antibodies were diluted in Detection buffer as per manufacturers recommendation. Then 2 μL of each solution was added to 16 μL lysate. Buffer control (lysis buffer detection buffer), Cryptate control (lysis buffer+cryptate antibody+detection buffer), and Negative control (lysis buffer+cryptate antibody+D2 antibody) were made as per manufacturers recommendation. Post incubation with antibodies the HTRF signal was measured using a Perkin Elmer Envision reader and the HTRF signal was calculated using formula: (Emission at 665 nm/Emission at 615 nm)*10,000. All HTRF values were normalized to the average value of DMSO. The average value of the DMSO control wells were set to equal 100% of the relative IRAK3 protein levels. Normalized luminescence values were plotted on a graph as a function of compound concentration. Compound concentration was plotted on the x-axis and the corresponding normalized IRAK3 protein levels on the y-axis. The EC50 value (the half-maximum effective concentration) of a compound for the degradation of the IRAK3 was calculated using a four-parameter logistic model (sigmoidal dose-response model) (FIT=(A+{(B−A)/1+[(C/x)D]})) where C is the inflection point (EC50), D is the […], and A and B are the low and high limits of the fit, respectively). The Ymin was calculated by determining the lowest percentage of target protein remaining following compound treatment. Dmax was calculated from Ymin (% Dmax=100−Ymin).
Using these assays, IC50, Dmax, EC50, and DC50 values of the following compounds were determined. Dmax is defined as the maximum percent degradation achieved and DC50 is the concentration at which 50% degradation is achieved.
Background: Time-resolved FRET reads energy transfer from a long-lived donor to a nearby acceptor.

Assay [2] addresses T2, IRAK3. Briefly: IRAK3 biochemical binding assay (LanthaScreen Eu Kinase Binding, TR-FRET). An outline of the steps: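 TR-FRET tracer-displacement binding with 10 nM IRAK3, 2 nM Eu-anti-GST antibody and 10 nM tracer in 50 mM HEPES pH 7.4, MgCl2, 1 mM EGTA, 0.01% Brij-35. Compounds in 3-fold dilutions, 1 h at room temperature. 665/615 nm ratio gave % inhibition; IC50 and Hill slope from dose-response fit.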

Broadly, the IC50 is the concentration at which inhibition is half-maximal. A high value points to a need for much substance.

Turning to `Cc1cc(-c2cnc(Nc3cnn(C4CCN(CCN5CCN(c6ccc(C7CCC(=O)NC7=O)c(F)c6)CC5)CC4)c3)c3nccn23)c(F)cc1F` (centres unmarked) [Compound 53, 3-(4-(4-(2-(4-(4-((5-(2,4-difluoro-5-methylphenyl)imdazo [1,2-a]pyrazin-8-yl)amino)-1H-pyrazol-1-yl)piperidin-1-yl)ethyl)piperazin-1-yl)-2-fluorophenyl)piper idine-2,6-dione], at IRAK3-ePL, the “IRAK3 ePL degradation Ymin” value was 22% and the DC50 came to 0.9 nM. Moreover, the “IRAK3 HTRF degradation Ymin” value at IRAK3 [1] was found to be 11%.

`Cc1ccc(F)c(-c2cnc(Nc3cnn(C4CCN(CCN5CCN(c6ccc(C7CCC(=O)NC7=O)cc6)CC5)CC4)c3)c3nccn23)c1` (centres unmarked) [Compound 36, 3-(4-(4-(2-(4-(4-((5-(2-fluoro-5-methylphenyl)imdazo [1,2-a]pyrazin-8-yl)amino)-1H-pyrazol-1-yl)piperidin-1-yl)ethyl)piperazin-1-yl)phenyl) piperidine-2,6-dione]: at IRAK3-ePL, the “IRAK3 ePL degradation Ymin” value is recorded as 24% and the DC50 is 1.1 nM. In addition, the “IRAK3 HTRF degradation Ymin” value on IRAK3 [1] stood at 9.8%.

With `Cc1cc(-c2cnc(Nc3cnn(C4CCN(CCN5CCN(c6ccc7c(C8CCC(=O)NC8=O)nn(C)c7c6)CC5)CC4)c3)c3nccn23)c(F)cc1F` (centres unmarked) [Compound 39, 3-(6-(4-(2-(4-(4-((5-(2,4-difluoro-5-methylphenyl)imdazo [1,2-a]pyrazin-8-yl)amino)-1H-pyrazol-1-yl)piperidin-1-yl)ethyl)piperazin-1-yl)-1-methyl-1H-indazol-3-yl)piperidine-2,6-dione], at IRAK3-ePL, the “IRAK3 ePL degradation Ymin” value stood at 32% and the DC50 was determined as 0.51 nM. Further, on IRAK3 [1], the “IRAK3 HTRF degradation Ymin” value was determined as 14. %.

As to `Cc1cccc(-c2cnc(Nc3cnn([C@H]4CC[C@H](CCN5CCN(c6ccc(C7CCC(=O)NC7=O)cc6)CC5)CC4)c3)c3nccn23)c1` (some centres unmarked) [Compound 64], on IRAK3-ePL, the “IRAK3 ePL degradation Ymin” value came out at 25% and the DC50 amounted to 4.2 nM. Also, the “IRAK3 HTRF degradation Ymin” value on IRAK3 [1] is listed as 8.6%.

In the case of `O=C1CCC(N2C(=O)c3ccc(N4CCN(C(=O)CN5CCC(n6cc(Nc7ncc(-c8ccc9c(c8)NC(=O)CO9)n8ccnc78)cn6)CC5)CC4)cc3C2=O)C(=O)N1` (centres unmarked) [Compound 21, 2-(2,6-dioxopiperidin-3-yl)-5-(4-(2-(4-(4-((5-(3-ox0-3,4-dihydro-2H-benzo[b][1,4]oxazin-6-yl)imidazo[1,2-a]pyrazin-8-yl)amino)-1H-pyrazol-1-yl)piperidin-1-yl)acetyl)piperazin-1-yl)isoindoline-1,3-dione], the “IRAK3 HTRF degradation Ymin” value at IRAK3 [1] was determined as 25%.

Consider `O=C1CCC(c2ccc(N3CCN(CCN4CCC(n5cc(Nc6ncc(-c7ccc8c(c7)NC(=O)CO8)n7ccnc67)cn5)CC4)CC3)cc2)C(=O)N1` (centres unmarked) [Compound 15, 3-(4-(4-(2-(4-(4-((5-(3-oxo-3,4-dihydro-2H-benzo[b][1,4]oxazin-6-yl)imidazo[1,2-a]pyrazin-8-yl)amino)-1H-pyrazol-1-yl)piperidin-1-yl)ethyl)piperazin-1-yl)phenyl) piperidine-2,6-dione], for which, at IRAK3-ePL, the “IRAK3 ePL degradation Ymin” value is recorded as 15% and the DC50 stood at 0.51 nM. Besides, at IRAK3 [2], the IC50 worked out at 6.4 nM.

On to `Cc1cc(-c2cnc(Nc3cnn([C@H]4CCN(CCN5CCN(c6ccc(C7CCC(=O)NC7=O)cc6)C[C@@H]5C)[C@@H](C)C4)c3)c3nccn23)c(F)cc1F` (stereo partly drawn) [Compound 34, 3-(4-((S)-4-(2-((2S,4S)-4-(4-((5-(2,4-difluoro-5-methylphenyl)imdazo [1,2-a]pyrazin-8-yl)amino)-1H-pyrazol-1-yl)-2-methylpiperidin-1-yl)ethyl)-3-methylpiperazin-1-yl)phenyl) piperidine-2,6-dione], for which, at IRAK3-ePL, the “IRAK3 ePL degradation Ymin” value came out at 23% and the DC50 came out at 1.7 nM. The molecule further displayed an IC50 on IRAK3 [2] of 1.5 nM.

As for `Cc1cccc(-c2cnc(Nc3cnn(C4CCN(CCN5CCN(c6ccc(C7CCC(=O)NC7=O)cc6)CC5)CC4)c3)c3nccn23)c1` (centres unmarked) [Compound 5, 3-(4-(4-(2-(4-(4-((5-(m-tolyl)imidazo[1,2-a]pyrazin-8-yl)amino)-1H-pyrazol-1-yl)piperidin-1-yl)ethyl)piperazin-1-yl)phenyl) piperidine-2,6-dione], at IRAK3-ePL, the “IRAK3 ePL degradation Ymin” value is 14% and the DC50 was 1 nM. The IC50 at IRAK3 [2] stood at 5.9 nM.

On to `Cc1cc(-c2cnc(Nc3cnn(C4CCN(C(=O)CN5CCN(c6ccc(C7CCC(=O)NC7=O)cc6)CC5)CC4)c3)c3nccn23)c(F)cc1F` (centres unmarked) [Compound 23, 3-(4-(4-(2-(4-(4-((5-(2,4-difluoro-5-methylphenyl)imidazo[1,2-a]pyrazin-8-yl)amino)-1H-pyrazol-1-yl)piperidin-1-yl)-2-oxoethyl)piperazin-1-yl)phenyl)piperidine-2,6-dione], for which, on IRAK3 [1], the “IRAK3 HTRF degradation Ymin” value is 17%.
